Substitutions are numbered along the chain they refer to.
Legend:
[1] = biological target: T1, Y71V mutant EAG1 channels (Mus musculus, UniProt Q60603, Y71V); test: TEVC recording, imipramine inhibition, Y71V mutant; assay type: cell-based; details: Y71V mutant EAG1 channel, +50 mV
T1 construct: expressed in transfected cells; host or cells: Xenopus laevis oocytes injected with cRNA
T1 sequence (Q60603 1-989 Y71V): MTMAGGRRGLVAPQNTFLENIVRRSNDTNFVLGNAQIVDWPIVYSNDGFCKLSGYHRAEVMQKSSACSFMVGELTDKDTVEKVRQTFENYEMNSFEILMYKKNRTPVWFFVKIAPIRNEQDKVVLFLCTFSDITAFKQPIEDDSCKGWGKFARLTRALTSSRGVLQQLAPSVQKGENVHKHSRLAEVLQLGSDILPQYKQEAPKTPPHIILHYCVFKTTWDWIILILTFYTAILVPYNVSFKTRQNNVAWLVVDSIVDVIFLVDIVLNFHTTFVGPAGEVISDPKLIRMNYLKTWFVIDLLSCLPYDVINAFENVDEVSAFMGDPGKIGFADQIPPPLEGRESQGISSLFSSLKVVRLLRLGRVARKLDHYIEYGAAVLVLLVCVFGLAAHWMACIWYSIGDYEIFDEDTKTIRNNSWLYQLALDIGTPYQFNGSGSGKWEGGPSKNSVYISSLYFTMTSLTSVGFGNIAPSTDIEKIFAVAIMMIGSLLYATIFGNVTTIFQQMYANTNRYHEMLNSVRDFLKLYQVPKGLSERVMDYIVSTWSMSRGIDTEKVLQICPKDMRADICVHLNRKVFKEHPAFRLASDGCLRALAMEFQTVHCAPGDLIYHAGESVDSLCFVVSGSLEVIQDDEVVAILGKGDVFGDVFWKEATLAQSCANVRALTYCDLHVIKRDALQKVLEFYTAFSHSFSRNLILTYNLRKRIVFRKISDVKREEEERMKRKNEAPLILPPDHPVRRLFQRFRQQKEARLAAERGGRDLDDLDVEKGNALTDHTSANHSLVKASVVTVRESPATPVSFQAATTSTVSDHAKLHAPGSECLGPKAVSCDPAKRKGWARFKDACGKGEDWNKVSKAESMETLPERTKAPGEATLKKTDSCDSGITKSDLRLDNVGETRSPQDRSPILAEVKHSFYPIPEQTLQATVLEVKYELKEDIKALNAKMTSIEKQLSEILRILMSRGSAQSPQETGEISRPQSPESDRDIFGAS
From the text: (§1) The cDNA encoding wild-type (WT) mouse EAG1 channels in pGH19 vector was kindly provided by G. Robertson (University of Wisconsin-Madison, Madison, WI). The mutant ΔPAS EAG1 channel in pGH19 with the deletion of the PAS domain residues 2 to 130 was generated by Bio Basic Inc and verified by DNA sequencing (Genewiz). Mutant EAG1 channels with single amino acid substitutions were generated by Genewiz and verified by DNA sequencing. cRNA was transcribed using the T7 mMessage mMachine kit (Thermo Fisher Scientific). Defolliculated Xenopus laevis oocytes were purchased from Ecocyte Bioscience or Xenopus1 and injected with the cRNA using a Nanoinject II oocyte injector (Drummond).
(§2) For EAG1 current recordings, oocytes were placed into a handmade chamber containing a bath solution for the current recording. The currents were recorded using a TEVC technique with OC-725C amplifier (Warner Instruments) and pClamp11 software (Molecular Devices). The signals were digitized using Digidata 1550 (Molecular Devices). Patch pipettes were pulled from borosilicate glass and had resistances of 0.7 to 1.5 MΩ. The recording (bath) solution contained 96 mM NaCl, 4 mM KCl, 0.1 mM CaCl2, 1.8 mM MgCl2, and 5 mM HEPES, pH 7.5. The pipette solution contained 3 M KCl. […]

[2] = biological target: T2, Y71F mutant EAG1 channels (Mus musculus, UniProt Q60603, Y71F); test: TEVC recording, imipramine inhibition, Y71F mutant; assay type: cell-based; details: Y71F mutant EAG1 channel, +50 mV
T2 construct: expressed in transfected cells; host or cells: Xenopus laevis oocytes injected with cRNA
T2 sequence (Q60603 1-989 Y71F): T1 sequence (Q60603 1-989 Y71V) with V71F
From the text: as §1, §2

IC50 [1]: 31.3 ± 1.8 µM
IC50 [2]: 58 ± 3.7 µM
Compound: CN(C)CCCN1c2ccccc2CCc2ccccc21 [imipramine]
